According to patent publication US9963442B2, “Pyridones as herbicides” (E I DU PONT DE NEMOURS AND COMPANY, priority 2014, dated 2018):

Columns and labels:
Type in all cases: in vivo
[1] = tested on: rice (Oryza sativa); assay: Test B flooded paddy test; parameters: key: 0 = no effect, 100 = complete control; conditions: Flood, 250 g ai/ha applied to paddy water at 2-leaf stage; visually evaluated after 13 to 15 days; scale 0 (no effect) to 100 (complete control)
Summary of the method: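 2-leaf plants; flood 3 cm over soil; compound into paddy water; depth held. Greenhouse 13–15 d. Visual rating vs controls, 0 (no effect) to 100 (complete control); dash = not tested.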

[2] = tested on: oilseed rape (Brassica napus); assay: Test C preemergence; conditions: scale 0 to 100, 0 is no effect, 100 is complete control
From the text: (§1) Seeds of plant species selected from blackgrass (Alopecurus myosuroides), Italian ryegrass (Lolium multiflorum), winter wheat (Triticum aestivum), galium (catchweed bedstraw, Galium aparine), corn (Zea mays), large (Lg) crabgrass (Digitaria sanguinalis), giant foxtail (Setaria faberii), johnsongrass (Sorghum halepense), lambsquarters (Chenopodium album), morningglory (Ipomoea coccinea), yellow nutsedge (Cyperus esculentus), pigweed (Amaranthus retroflexus), ragweed (common ragweed, Ambrosia elatior), soybean (Glycine max), barnyardgrass (Echinochloa crus-galli), oilseed rape (Brassica napus), waterhemp (common waterhemp, Amaranthus rudis), and velvetleaf (Abutilon theophrasti) were planted into a blend of loam soil and sand and treated preemergence with test chemicals formulated in a non-phytotoxic solvent mixture which included a surfactant. At the same time, plants selected from these crop and weed species and also chickweed (common chickweed, Stellaria media), kochia (Kochia scoparia), and wild oat (Avena fatua), were planted in pots containing Sunshine Redi-Earth® planting medium comprising spaghnum peat moss, vermiculite, starter nutrients and dolomitic limestone and treated with postemergence applications of test chemicals formulated in the same manner. Plants ranged in height from 2 to 18 cm (1- to 4-leaf stage) for postemergence treatments. Treated plants and controls were maintained in a greenhouse for 13 to 15 days, after which time all species were compared to controls and visually evaluated. Plant response ratings, summarized in Table C, are based on a scale of 0 to 100 where 0 is no effect and 100 is complete control. A dash (-) response means no test result.

[3] = tested on: morningglory (Ipomoea coccinea); assay: Test C preemergence; conditions: scale 0 to 100, 0 is no effect, 100 is complete control
From the text: as §1

[4] = tested on: pigweed (Amaranthus retroflexus); assay: Test C preemergence; conditions: scale 0 to 100, 0 is no effect, 100 is complete control
From the text: as §1

[5] = tested on: velvetleaf (Abutilon theophrasti); assay: Test C preemergence; conditions: scale 0 to 100, 0 is no effect, 100 is complete control
From the text: as §1

[6] = tested on: soybean (Glycine max); assay: Test C preemergence; conditions: scale 0 to 100, 0 is no effect, 100 is complete control
From the text: as §1

[7] = tested on: winter wheat (Triticum aestivum); assay: Test C preemergence; conditions: scale 0 to 100, 0 is no effect, 100 is complete control
From the text: as §1

[8] = tested on: barnyardgrass (Echinochloa crus-galli); assay: Test C preemergence; conditions: scale 0 to 100, 0 is no effect, 100 is complete control
From the text: as §1

[9] = tested on: Italian ryegrass (Lolium multiflorum); assay: Test C preemergence; conditions: scale 0 to 100, 0 is no effect, 100 is complete control
From the text: as §1

[10] = tested on: large (Lg) crabgrass (Digitaria sanguinalis); assay: Test C preemergence; conditions: scale 0 to 100, 0 is no effect, 100 is complete control
From the text: as §1

[11] = tested on: blackgrass (Alopecurus myosuroides); assay: Test C preemergence; conditions: scale 0 to 100, 0 is no effect, 100 is complete control
From the text: as §1

[12] = tested on: galium (catchweed bedstraw, Galium aparine); assay: Test C preemergence; conditions: scale 0 to 100, 0 is no effect, 100 is complete control
From the text: as §1

[13] = tested on: yellow nutsedge (Cyperus esculentus); assay: Test C preemergence; conditions: scale 0 to 100, 0 is no effect, 100 is complete control
From the text: as §1

[14] = tested on: johnsongrass (Sorghum halepense); assay: Test C preemergence; conditions: scale 0 to 100, 0 is no effect, 100 is complete control
From the text: as §1

[15] = tested on: waterhemp (common waterhemp, Amaranthus rudis); assay: Test C preemergence; conditions: scale 0 to 100, 0 is no effect, 100 is complete control
From the text: as §1

[16] = tested on: giant foxtail (Setaria faberii); assay: Test C preemergence; conditions: scale 0 to 100, 0 is no effect, 100 is complete control
From the text: as §1

[17] = tested on: corn (Zea mays); assay: Test C preemergence; conditions: scale 0 to 100, 0 is no effect, 100 is complete control
From the text: as §1

[18] = tested on: ragweed (common ragweed, Ambrosia elatior); assay: Test C preemergence; conditions: scale 0 to 100, 0 is no effect, 100 is complete control
From the text: as §1

[19] = tested on: lambsquarters (Chenopodium album); assay: Test C preemergence; conditions: scale 0 to 100, 0 is no effect, 100 is complete control
From the text: as §1

SMILES: O=c1cccc(Oc2ncc(Cl)cn2)n1-c1ccc(C(F)(F)F)cn1 [Compound 7]
- Plant response rating, Rice [1]: 0
- Plant response rating, Oilseed Rape ([2]; 16 g ai/ha): 5
- Plant response rating, Oilseed Rape ([2]; 31 g ai/ha): 35
- Plant response rating, Oilseed Rape ([2]; 62 g ai/ha): 85
- Plant response rating, Oilseed Rape ([2]; 125 g ai/ha): 95
- Plant response rating, Morningglory ([3]; 16 g ai/ha): 0
- Plant response rating, Morningglory ([3]; 31 g ai/ha): 0
- Plant response rating, Morningglory ([3]; 62 g ai/ha): 10
- Plant response rating, Morningglory ([3]; 125 g ai/ha): 25
- Plant response rating, Pigweed ([4]; 16 g ai/ha): 20
- Plant response rating, Pigweed ([4]; 31 g ai/ha): 100
- Plant response rating, Pigweed ([4]; 62 g ai/ha): 100
- Plant response rating, Pigweed ([4]; 125 g ai/ha): 100
- Plant response rating, Velvetleaf ([5]; 16 g ai/ha): 5
- Plant response rating, Velvetleaf ([5]; 31 g ai/ha): 10
- Plant response rating, Velvetleaf ([5]; 62 g ai/ha): 35
- Plant response rating, Velvetleaf ([5]; 125 g ai/ha): 55
- Plant response rating, Soybean ([6]; 16 g ai/ha): 10
- Plant response rating, Soybean ([6]; 62 g ai/ha): 15
- Plant response rating, Soybean ([6]; 125 g ai/ha): 50
- Plant response rating, Wheat ([7]; 16 g ai/ha): 0
- Plant response rating, Wheat ([7]; 31 g ai/ha): 0
- Plant response rating, Wheat ([7]; 62 g ai/ha): 0
- Plant response rating, Wheat ([7]; 125 g ai/ha): 0
- Plant response rating, Barnyardgrass ([8]; 16 g ai/ha): 5
- Plant response rating, Barnyardgrass ([8]; 31 g ai/ha): 10
- Plant response rating, Barnyardgrass ([8]; 62 g ai/ha): 35
- Plant response rating, Barnyardgrass ([8]; 125 g ai/ha): 75
- Plant response rating, Ryegrass, Italian ([9]; 16 g ai/ha): 0
- Plant response rating, Ryegrass, Italian ([9]; 31 g ai/ha): 0
- Plant response rating, Ryegrass, Italian ([9]; 62 g ai/ha): 10
- Plant response rating, Ryegrass, Italian ([9]; 125 g ai/ha): 30
- Plant response rating, Crabgrass, Large ([10]; 16 g ai/ha): 5
- Plant response rating, Crabgrass, Large ([10]; 31 g ai/ha): 60
- Plant response rating, Crabgrass, Large ([10]; 62 g ai/ha): 95
- Plant response rating, Crabgrass, Large ([10]; 125 g ai/ha): 100
- Plant response rating, Blackgrass ([11]; 16 g ai/ha): 0
- Plant response rating, Blackgrass ([11]; 31 g ai/ha): 0
- Plant response rating, Blackgrass ([11]; 62 g ai/ha): 30
- Plant response rating, Blackgrass ([11]; 125 g ai/ha): 85
- Plant response rating, Galium ([12]; 16 g ai/ha): 0
- Plant response rating, Galium ([12]; 31 g ai/ha): 50
- Plant response rating, Galium ([12]; 62 g ai/ha): 98
- Plant response rating, Galium ([12]; 125 g ai/ha): 100
- Plant response rating, Nutsedge, Yellow ([13]; 16 g ai/ha): 0
- Plant response rating, Nutsedge, Yellow ([13]; 31 g ai/ha): 0
- Plant response rating, Nutsedge, Yellow ([13]; 62 g ai/ha): 0
- Plant response rating, Nutsedge, Yellow ([13]; 125 g ai/ha): 15
- Plant response rating, Johnsongrass ([14]; 16 g ai/ha): 0
- Plant response rating, Johnsongrass ([14]; 31 g ai/ha): 0
- Plant response rating, Johnsongrass ([14]; 62 g ai/ha): 10
- Plant response rating, Johnsongrass ([14]; 125 g ai/ha): 20
- Plant response rating, Waterhemp ([15]; 16 g ai/ha): 85
- Plant response rating, Waterhemp ([15]; 31 g ai/ha): 85
- Plant response rating, Waterhemp ([15]; 62 g ai/ha): 100
- Plant response rating, Waterhemp ([15]; 125 g ai/ha): 100
- Plant response rating, Foxtail, Giant ([16]; 16 g ai/ha): 25
- Plant response rating, Foxtail, Giant ([16]; 31 g ai/ha): 60
- Plant response rating, Foxtail, Giant ([16]; 62 g ai/ha): 85
- Plant response rating, Foxtail, Giant ([16]; 125 g ai/ha): 98
- Plant response rating, Corn ([17]; 16 g ai/ha): 0
- Plant response rating, Corn ([17]; 31 g ai/ha): 0
- Plant response rating, Corn ([17]; 62 g ai/ha): 10
- Plant response rating, Corn ([17]; 125 g ai/ha): 10
- Plant response rating, Ragweed ([18]; 16 g ai/ha): 35
- Plant response rating, Ragweed ([18]; 31 g ai/ha): 45
- Plant response rating, Ragweed ([18]; 62 g ai/ha): 50
- Plant response rating, Ragweed ([18]; 125 g ai/ha): 40
- Plant response rating, Lambsquarters ([19]; 16 g ai/ha): 15
- Plant response rating, Lambsquarters ([19]; 31 g ai/ha): 40
- Plant response rating, Lambsquarters ([19]; 62 g ai/ha): 75
- Plant response rating, Lambsquarters ([19]; 125 g ai/ha): 75
